Tests used:
[1] = IAM chromatography, normalized capacity factor on esterIAM.PS C10/C3; type: physicochemical; details: 15% acetonitrile + 85% 0.03 M NH4OAc buffer pH 7.4, 1 mL/min
Description: (§1) The preferred, if not only surfaces capable of measuring membrane binding constants so far are from a group of immobilized artificial membranes (IAMs). IAMs consist of a monolayer of phospholipids covalently immobilized to a silica surface. Five types of IAM surfaces are typically used: phosphatidylcholine (PC), phosphatidylethanolamine (PE), phosphatidylserine (PS), sphingomyelin (SM), and cholesterol (CL). These IAM silica surfaces are used as the stationary phase in high performance liquid chromatography (HPLC). The IAM columns can be run in parallel with one single MS detection system (multi-column LC/MS) or successively using a one-column LC/MS instrument.
(§2) Dimensions of the columns: 3.0×0.46 cm.
(§3) Wavelength of the UV detector: 220 nm.
(§4) Mobile phase composition: 15% of acetonitrile+85% of 0.03 M NH4OAc buffer (pH 7.4).
(§5) All five compounds were chromatographed on ^esterIAM.PC^C10/C3, ^esterIAM.PE^C10/C3, ^esterIAM.PS^C10/C3, IAM.SM^C10/C3 using the experimental conditions described above. A representative set of normalized capacity factor values (αk′) of these drugs are presented in Table 6 [It should be noted that these values are very much dependent on packing material quality and density, as well as mobile phase composition (particularly the pH). Thus these values are not absolute and may vary from column to column within the same column type].

[2] = IAM chromatography, normalized capacity factor on esterIAM.PE C10/C3; type: physicochemical; details: 15% acetonitrile + 85% 0.03 M NH4OAc buffer pH 7.4, 1 mL/min
Description: as §1, §2, §3, §4, §5

[3] = IAM chromatography, normalized capacity factor on esterIAM.PC C10/C3; type: physicochemical; details: 15% acetonitrile + 85% 0.03 M NH4OAc buffer pH 7.4, 1 mL/min
Description: as §1, §2, §3, §4, §5

[4] = IAM chromatography, normalized capacity factor on IAM.SM C10/C3; type: physicochemical; details: 15% acetonitrile + 85% 0.03 M NH4OAc buffer pH 7.4, 1 mL/min
Description: as §1, §2, §3, §4, §5

[5] = test system: antibody of the Haloperidol ELISA (specific for Haloperidol); test: Haloperidol ELISA (Neogen competitive ELISA test kit); type: binding
Description: (§6) ELISA test kits were purchased from Neogen Corporation, Lexington, Ky. […] Structural features that typically produce a positive response for each of these assays are described on FIG. 11.
(§7) ELISA is a method of analysis that relies on specific interactions between antibodies and antigens to detect a variety of substances. The assay (Neogen) operates on the basis of competition between the horseradish peroxidase (HRP) enzyme conjugate and the analyte in the sample for specific binding sites on the precoated antibody microplate. The test kits used for the experiment are 96-well plates precoated with a specific antibody. As described in FIG. 12, the sample or standard solution is first added to the precoated antibody microplate. Next, the diluted enzyme conjugate is added and the mixture is shaken and then incubated at room temperature for one hour. During incubation, competition for binding sites on the microplate is taking place. The plate is then washed removing all unbound material. The bound enzyme conjugate is detected by the addition of a tetramethylbenzidine (TMB) based substrate which generates an optimal color after 30 minutes. […] The extent of color development is inversely proportional to the amount of analyte in the sample or standard. […] Typically, the sensitivity of the selected ELISA assays ranges from ˜0.1 to 20-30 ng/mL depending on the substrate. […]

[6] = test system: tricyclic antibody; test: Tricyclic ELISA (Neogen competitive ELISA test kit); type: binding; details: experiment C, 7-drug mixture; ELISA fingerprint compared with chromatographic fingerprints
Description: as §6, §7

[7] = test system: antibody of the Benzodiazepines ELISA (specific for compounds belonging to the Benzodiazepine family); test: Benzodiazepine ELISA (Neogen competitive ELISA test kit); type: binding; details: experiment C, 7-drug mixture; ELISA fingerprint compared with chromatographic fingerprints
Description: as §6, §7

| Molecule | IAM.PS (αk′) [1] | IAM.PE (αk′) [2] | IAM.PC (αk′) [3] | IAM.SM (αk′) [4] | Haloperidol ELISA activity assigned to compound ([5]; experiment B, 70-drug mixture, activity profile compared with chromatographic fingerprints) | Haloperidol ELISA activity assigned to compound ([5]; experiment C, 7-drug mixture, ELISA fingerprint compared with chromatographic fingerprints) | Tricyclic ELISA activity assigned to compound [6] | Benzodiazepine ELISA activity assigned to compound [7] |
| --- | --- | --- | --- | --- | --- | --- | --- | --- |
| COc1cc(CCN)cc(OC)c1OC [Mescaline] | 11.39 | 1.95 | 0.62 | 0.49 |  |  |  |  |
| O=C(CCCN1CCC(O)(c2ccc(Cl)cc2)CC1)c1ccc(F)cc1 [Haloperidol] |  |  |  |  | activity should be assigned to Haloperidol | only matches the chromatographic fingerprint of Haloperidol |  |  |
| Olazoline | 4.72 | 1.19 | 0.52 | 0.49 |  |  |  |  |
| CN1CCCN=C1COC(=O)C(O)(c1ccccc1)C1CCCCC1 (stereo not drawn) [Oxyphencyclimine] |  |  |  |  |  |  | detected |  |
| CN1C(=O)CN=C(c2ccccc2)c2cc(Cl)ccc21 [Diazepam] |  |  |  |  |  |  |  | detected by the Benzodiazepine ELISA assay |
| CCn1cc(C(=O)O)c(=O)c2cc(F)c(N3CCNCC3)cc21 [Norfloxacin] | 8.09 | 1.31 | 0.64 | 2.09 |  |  |  |  |
| Cc1cn([C@H]2C[C@H](N=[N+]=[N-])[C@@H](CO)O2)c(=O)[nH]c1=O [AZT] | 0.36 | 0.76 | 0.36 | 0.26 |  |  |  |  |
| CCN(CC)C(=O)c1cccnc1 [Nikethamide] | 0.61 | 1.55 | 0.33 | 0.30 |  |  |  |  |
